Read-outs that look alike come from different tables or passages of the source.
Assays:
Hck = Hck (Homo sapiens, UniProt P08631); test: Hck kinase inhibition; format: biochemical
Caco-2 permeability = format: in vitro ADME; settings: human
Description: (§1) 36 CLint: intrinsic clearance in liver microsomes. h/m: human/mouse. Papp: apparent permeability. uPPB:
(§2) 37 unbound plasma protein binding. […]

PI3K α = PI3K α (Homo sapiens, UniProt P42336); test: Scintillation proximity assay, PI3Kα enzymatic activity; format: biochemical; settings: 65 μM ATP, read-out: Enzymatic potency IC50
Sequence of PI3K α (P42336 whole entry): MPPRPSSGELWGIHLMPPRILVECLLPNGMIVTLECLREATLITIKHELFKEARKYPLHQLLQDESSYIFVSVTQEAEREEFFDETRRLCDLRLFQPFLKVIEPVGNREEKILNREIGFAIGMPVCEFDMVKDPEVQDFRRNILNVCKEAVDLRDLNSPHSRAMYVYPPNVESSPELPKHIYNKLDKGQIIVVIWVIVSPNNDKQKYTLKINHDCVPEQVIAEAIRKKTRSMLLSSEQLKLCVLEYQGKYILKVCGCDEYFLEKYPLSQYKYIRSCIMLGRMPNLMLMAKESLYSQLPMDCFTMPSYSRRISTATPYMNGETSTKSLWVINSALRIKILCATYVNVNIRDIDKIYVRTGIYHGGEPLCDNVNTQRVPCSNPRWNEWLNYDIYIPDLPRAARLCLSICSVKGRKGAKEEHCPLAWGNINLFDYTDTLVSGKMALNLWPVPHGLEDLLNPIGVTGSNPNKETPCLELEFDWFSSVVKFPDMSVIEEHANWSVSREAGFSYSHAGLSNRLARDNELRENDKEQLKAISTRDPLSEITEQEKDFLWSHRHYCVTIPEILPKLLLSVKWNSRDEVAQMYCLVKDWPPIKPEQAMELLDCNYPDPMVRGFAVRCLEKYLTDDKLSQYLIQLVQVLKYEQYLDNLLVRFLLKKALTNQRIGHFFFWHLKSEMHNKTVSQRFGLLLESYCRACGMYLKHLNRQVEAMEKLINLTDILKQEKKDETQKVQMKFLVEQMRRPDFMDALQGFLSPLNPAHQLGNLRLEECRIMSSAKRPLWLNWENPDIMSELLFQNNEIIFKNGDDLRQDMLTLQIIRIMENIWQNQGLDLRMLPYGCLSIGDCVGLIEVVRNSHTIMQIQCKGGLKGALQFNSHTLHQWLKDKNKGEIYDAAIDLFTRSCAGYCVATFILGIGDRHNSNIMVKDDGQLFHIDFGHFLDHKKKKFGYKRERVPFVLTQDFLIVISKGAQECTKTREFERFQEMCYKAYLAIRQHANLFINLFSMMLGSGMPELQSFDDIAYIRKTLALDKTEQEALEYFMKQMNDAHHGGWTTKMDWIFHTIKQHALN
Sequence of PI3K α (P27986 whole entry partner): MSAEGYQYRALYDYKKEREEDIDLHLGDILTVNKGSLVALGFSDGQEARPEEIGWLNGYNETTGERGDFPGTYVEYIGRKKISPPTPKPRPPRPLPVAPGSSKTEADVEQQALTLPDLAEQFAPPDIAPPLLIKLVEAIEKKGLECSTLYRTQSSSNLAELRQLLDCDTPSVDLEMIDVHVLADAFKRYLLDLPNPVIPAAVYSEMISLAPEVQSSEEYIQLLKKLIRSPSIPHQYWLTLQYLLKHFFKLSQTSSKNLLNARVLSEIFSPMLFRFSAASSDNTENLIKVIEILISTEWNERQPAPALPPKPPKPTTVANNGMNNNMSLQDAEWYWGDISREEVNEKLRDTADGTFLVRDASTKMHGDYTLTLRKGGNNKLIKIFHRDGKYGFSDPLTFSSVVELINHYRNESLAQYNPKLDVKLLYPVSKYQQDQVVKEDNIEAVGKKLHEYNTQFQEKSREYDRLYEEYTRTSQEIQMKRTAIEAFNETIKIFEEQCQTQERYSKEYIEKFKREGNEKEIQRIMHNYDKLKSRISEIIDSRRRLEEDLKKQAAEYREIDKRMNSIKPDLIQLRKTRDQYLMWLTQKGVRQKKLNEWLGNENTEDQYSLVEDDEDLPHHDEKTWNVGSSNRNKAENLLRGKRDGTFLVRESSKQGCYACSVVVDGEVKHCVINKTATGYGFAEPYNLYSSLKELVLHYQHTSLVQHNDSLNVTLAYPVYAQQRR

CD123+/CD303+ pDC cells = test: Plasmacytoid dendritic cell IFN-α release assay (CpG ODN 2395); format: cell-based, human
Experimental: Plasmacytoid dendritic cells were isolated from PBMC of healthy volunteers by negative selection using pDC purification kit (Miltenyi Biotech, Bergisch Gladbach, Germany). […] IFN-α in the supernatants was measured from the culture supernatants with Verikine ELISA kit (PBL Assay Science, Piscataway, NJ, USA).

B cell/PBMC co-culture = test: BioMAP B–T system (B cell/PBMC co-culture, anti-IgM and mild TCR stimulation); format: cell-based, human; settings: 84 h
Experimental: Positively selected primary normal human CD19^+ B cells and CD4^+ T-cells were obtained from AllCells (Emeryville, CA, USA). PBMC were isolated from buffy coats (Stanford Blood Center, Stanford, CA, USA).
The levels of readout parameters were measured by ELISA ([14], [15]). Measurement values for each biomarker readout in a compound-treated sample were divided by the mean value from eight DMSO control samples (from the same plate) to generate a ratio. All ratios were then log10 transformed and plotted (BioMAP profile). Overt cytotoxicity of test compounds was assessed by total cell protein staining sulforhodamine B (Sigma-Aldrich, St. Louis, MO, USA) for adherent cells, or by cell viability staining Alamar Blue (Invitrogen, Carlsbad, CA, USA) for non-adherent cells.
This system models both T-cell-dependent B cell activation and class-switching as would occur in a germinal center, and B-cell-dependent T-cell responses, such as cytokine release ([13]).

pAkt in Ramos B cells = test: BCR-crosslinking (anti-IgM)-induced Akt phosphorylation in Ramos cells; format: cell-based; settings: Homo sapiens, 0.25 h, anti-IgM 15 min
PI3K δ [1] = test: Scintillation proximity assay, PI3Kδ enzymatic activity; format: biochemical, human
PI3K δ [2] = target: PI3K δ (Homo sapiens, UniProt O00329); test: as above; format: biochemical; settings: PI3K δ; 65 μM ATP; read-out: Enzymatic potency IC50
Sequence of PI3K δ (Homo sapiens, UniProt O00329) (O00329 whole entry): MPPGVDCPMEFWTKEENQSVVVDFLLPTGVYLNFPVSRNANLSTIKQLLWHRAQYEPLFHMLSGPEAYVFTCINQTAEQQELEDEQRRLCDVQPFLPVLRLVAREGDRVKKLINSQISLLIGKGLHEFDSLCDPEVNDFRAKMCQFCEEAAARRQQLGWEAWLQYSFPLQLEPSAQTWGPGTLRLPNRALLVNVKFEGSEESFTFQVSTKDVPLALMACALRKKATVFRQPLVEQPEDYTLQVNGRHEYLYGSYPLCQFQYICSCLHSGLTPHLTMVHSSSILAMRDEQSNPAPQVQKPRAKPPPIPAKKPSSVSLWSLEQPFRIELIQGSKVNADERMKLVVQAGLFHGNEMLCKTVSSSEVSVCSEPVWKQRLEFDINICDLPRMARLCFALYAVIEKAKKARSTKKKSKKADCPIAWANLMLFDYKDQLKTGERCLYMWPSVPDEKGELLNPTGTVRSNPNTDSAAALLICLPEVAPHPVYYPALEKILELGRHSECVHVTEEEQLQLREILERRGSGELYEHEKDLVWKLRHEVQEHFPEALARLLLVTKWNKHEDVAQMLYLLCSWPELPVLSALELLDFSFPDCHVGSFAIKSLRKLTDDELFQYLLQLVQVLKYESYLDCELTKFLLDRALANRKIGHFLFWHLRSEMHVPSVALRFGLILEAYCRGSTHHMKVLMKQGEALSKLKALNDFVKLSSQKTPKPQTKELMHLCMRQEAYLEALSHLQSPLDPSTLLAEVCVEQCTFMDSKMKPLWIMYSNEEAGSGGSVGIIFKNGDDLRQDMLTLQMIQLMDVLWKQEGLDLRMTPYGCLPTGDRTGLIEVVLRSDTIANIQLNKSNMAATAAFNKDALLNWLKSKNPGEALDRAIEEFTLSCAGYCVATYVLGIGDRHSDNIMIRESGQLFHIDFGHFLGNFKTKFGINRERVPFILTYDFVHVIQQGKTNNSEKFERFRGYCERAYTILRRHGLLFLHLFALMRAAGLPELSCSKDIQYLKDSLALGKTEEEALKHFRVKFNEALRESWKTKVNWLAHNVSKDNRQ

PAK3 = PAK3 (Homo sapiens, UniProt O75914); test: PAK3 kinase inhibition; format: biochemical
Sequence of PAK3 (O75914 whole entry, species assumed): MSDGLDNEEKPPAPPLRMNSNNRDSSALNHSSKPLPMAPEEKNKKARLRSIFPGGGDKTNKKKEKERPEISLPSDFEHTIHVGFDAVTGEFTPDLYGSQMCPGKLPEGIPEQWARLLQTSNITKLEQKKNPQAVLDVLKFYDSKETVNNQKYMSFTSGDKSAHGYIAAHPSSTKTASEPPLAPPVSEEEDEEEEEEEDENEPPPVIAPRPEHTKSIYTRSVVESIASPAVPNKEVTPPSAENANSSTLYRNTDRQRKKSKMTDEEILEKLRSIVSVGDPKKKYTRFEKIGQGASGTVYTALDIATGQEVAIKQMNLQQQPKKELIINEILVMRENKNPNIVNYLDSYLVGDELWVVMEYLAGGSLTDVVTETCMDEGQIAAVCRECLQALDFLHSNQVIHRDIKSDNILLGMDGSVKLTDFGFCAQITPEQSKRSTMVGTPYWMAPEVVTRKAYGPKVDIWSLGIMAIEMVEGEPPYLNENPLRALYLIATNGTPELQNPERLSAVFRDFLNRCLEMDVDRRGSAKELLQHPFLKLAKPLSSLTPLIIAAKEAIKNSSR

[3] = test system: CD69 on CD19+ cells, PBMCs from SLE patients; test: Anti-IgM-induced CD69 up-regulation in PBMCs from SLE patients; format: cell-based; settings: Homo sapiens, PBMC, 18 h, SLE patient PBMC, anti-IgM 18 h
Experimental: Heparinized human blood or buffy-coat prepared from healthy donors was obtained from the “Center de transfusion sanguine” of Geneva (Switzerland). Cryopreserved PBMCs from SLE patients were obtained from Asterand (Detroit, MI, USA). […] Studies were approved by Merck Serono ethics committee.
(A) Peripheral blood from healthy donors were collected in heparinized tubes and stimulated with anti-IgM for 5 min. Intracellular pAkt gated on CD19^+ cells were analyzed by flow cytometry. […] CD69 up-regulation on CD19^+ cells were analyzed by flow cytometry. Mean fluorescent intensity (MFI) from basal and stimulated conditions without inhibitor were used as 100% of activity. […]

[4] = test system: pAkt in B220+ B cells, mouse whole blood; test: Anti-IgD-induced pAkt in mouse whole blood (in vitro); format: cell-based; settings: for IC50: B-cell, mouse whole blood in vitro, anti-IgD
Experimental: Whole blood withdrawn from C57BL/6N mice (Charles River Laboratories, L’Arbresle, France) was incubated with PI3Kδ inhibitors for 30 min and stimulated with goat anti-mouse IgD antiserum (eBioscience, San Diego, CA, USA) for 7 min at 37°C. […] Cells were stained with rabbit anti-pAkt (Ser473) for 1 h followed by anti-IgD-FITC, anti-B220-PerCP-Cy5.5 (all BD Biosciences Pharmingen, San Diego, CA, USA), and donkey anti-rabbit IgG-Alexa647 (Invitrogen, Carlsbad, CA, USA) for 30 min at room temperature. B220^+IgD^+ cells were gated for pAkt analysis.

PI3K γ = PI3K γ (Homo sapiens, UniProt P48736); test: Scintillation proximity assay, PI3Kγ enzymatic activity; format: biochemical; settings: 65 μM ATP, read-out: Enzymatic potency IC50
Sequence of PI3K γ (P48736 whole entry): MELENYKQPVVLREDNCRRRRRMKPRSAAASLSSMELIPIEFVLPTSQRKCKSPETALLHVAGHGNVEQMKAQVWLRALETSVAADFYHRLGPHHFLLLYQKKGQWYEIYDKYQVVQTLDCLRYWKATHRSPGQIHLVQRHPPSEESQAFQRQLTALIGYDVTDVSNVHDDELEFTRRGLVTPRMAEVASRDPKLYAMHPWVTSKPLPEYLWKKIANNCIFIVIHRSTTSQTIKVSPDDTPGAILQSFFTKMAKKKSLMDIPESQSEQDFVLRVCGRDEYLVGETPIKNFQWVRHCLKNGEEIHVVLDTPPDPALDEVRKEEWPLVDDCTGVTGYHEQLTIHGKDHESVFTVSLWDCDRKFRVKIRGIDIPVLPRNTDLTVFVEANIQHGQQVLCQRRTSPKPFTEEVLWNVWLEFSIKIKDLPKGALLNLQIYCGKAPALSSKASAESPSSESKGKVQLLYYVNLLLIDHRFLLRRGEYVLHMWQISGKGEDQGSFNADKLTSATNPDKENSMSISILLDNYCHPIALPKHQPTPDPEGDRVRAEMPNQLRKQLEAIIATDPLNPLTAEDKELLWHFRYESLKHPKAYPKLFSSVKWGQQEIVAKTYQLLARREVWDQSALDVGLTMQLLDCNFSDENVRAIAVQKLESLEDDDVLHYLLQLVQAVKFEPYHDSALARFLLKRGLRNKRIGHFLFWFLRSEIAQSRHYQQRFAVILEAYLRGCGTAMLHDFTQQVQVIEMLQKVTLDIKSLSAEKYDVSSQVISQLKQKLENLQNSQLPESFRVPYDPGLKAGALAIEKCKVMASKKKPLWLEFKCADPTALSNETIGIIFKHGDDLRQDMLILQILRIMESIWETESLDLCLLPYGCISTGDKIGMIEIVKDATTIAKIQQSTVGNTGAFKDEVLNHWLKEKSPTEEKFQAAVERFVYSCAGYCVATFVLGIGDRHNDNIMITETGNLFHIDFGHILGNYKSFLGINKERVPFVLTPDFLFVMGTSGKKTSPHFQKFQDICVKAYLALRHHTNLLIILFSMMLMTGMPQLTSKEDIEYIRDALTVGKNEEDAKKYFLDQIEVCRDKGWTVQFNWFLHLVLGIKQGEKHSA

CD19+ B cells = test: B cell proliferation assay (anti-IgM + IL-4, [3H]thymidine); format: cell-based, human; settings: for IC50: anti-IgM and IL-4, 4 days
Experimental: CD19^+ B cells were isolated from PBMC of healthy volunteers by negative selection using the B cell purification kit II (Miltenyi Biotech, Bergisch Gladbach, Germany) and following manufacturer’s instructions. […] Proliferation was assessed by a multiplate beta counter (Perkin Elmer, Shelton, CT, USA).

[5] = Human PK prediction based on allometric scaling; settings: data not shown
pAkt = test: Imax PK/PD model of BCR activation-induced pAkt response; settings: mouse, estimated in vivo PD parameter (pAkt)
Description: An Imax PK/PD model describing BCR activation-induced pAkt response was established using data from in vitro and ex vivo mouse whole blood assays.

[6] = Unbound plasma protein binding, human; format: in vitro ADME; settings: unbound fraction
Description: as §1, §2

[7] = test system: CD4+CD45RA− memory T-cells; test: T-cell cytokine release assay (anti-CD3/anti-CD28); format: cell-based, human; settings: for IC50: Homo sapiens, T-cell, 120 h, memory T-cells, anti-CD3 and anti-CD28, 5 days
Experimental: Purified T-cells were incubated with PI3Kδ inhibitors for 1 h, and stimulated with 5 μg/ml anti-CD3 and 2 μg/ml anti-CD28 for 5 days. Cytokines in the supernatants were measured with Luminex® xMAP® multiplex bead assay kits (Bio-Rad, Hercules, CA, USA).

[8] = In vivo pharmacokinetics in mouse; settings: estimated
[9] = test system: pAkt in CD19+ B cells, human whole blood; test: Anti-IgM-induced pAkt in human whole blood; format: cell-based; settings: B-cell, 5 min, healthy donors
Experimental: Human whole blood was incubated with PI3Kδ inhibitors for 30 min and stimulated with 30 μg/ml anti-IgM (Jackson Immuno Research, West Grove, PA, USA) for 5 min at 37°C. […] Cell were stained with rabbit anti-pAkt (Ser473) followed by the Alexa647-conjugated F(ab′)2 goat anti-rabbit IgG (Invitrogen, Carlsbad, CA, USA), and anti-CD19-PE (BD Biosciences Pharmingen, San Diego, CA, USA). CD19^+ cells were gated for pAkt analysis.

[10] = Unbound plasma protein binding, mouse; format: in vitro ADME; settings: unbound fraction
Description: as §1, §2

[11] = test system: panel of 278 additional kinases; test: Kinase selectivity profile at 10 µM; format: biochemical; settings: significant inhibition = >50%, ATP at Km

Sequence of Hck (P08631 whole entry, species assumed): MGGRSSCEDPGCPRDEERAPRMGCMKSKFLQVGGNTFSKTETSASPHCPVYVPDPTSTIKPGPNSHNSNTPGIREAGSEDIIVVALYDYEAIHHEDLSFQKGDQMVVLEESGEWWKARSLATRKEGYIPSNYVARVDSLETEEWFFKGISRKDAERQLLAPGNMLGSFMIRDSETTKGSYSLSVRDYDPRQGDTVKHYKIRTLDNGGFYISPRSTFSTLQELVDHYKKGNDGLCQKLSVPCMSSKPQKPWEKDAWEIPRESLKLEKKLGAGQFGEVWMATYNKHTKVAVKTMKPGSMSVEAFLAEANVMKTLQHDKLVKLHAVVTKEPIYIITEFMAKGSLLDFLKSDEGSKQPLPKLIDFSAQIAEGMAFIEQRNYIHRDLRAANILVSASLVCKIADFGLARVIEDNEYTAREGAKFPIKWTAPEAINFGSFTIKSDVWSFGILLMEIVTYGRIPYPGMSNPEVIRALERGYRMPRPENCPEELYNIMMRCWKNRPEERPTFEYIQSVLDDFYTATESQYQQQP

IC50 (Hck): > 10 µM
Papp (Caco-2 permeability): 2.4 ×10⁻⁶ cm/s
efflux ratio (Caco-2 permeability): 1.6
IC50 (PI3K α): 7.65 µM
IC50 (CD123+/CD303+ pDC cells; Homo sapiens, Plasmacytoid dendritic cell, pDC, CpG ODN 2395 Type C, 18 h): 0.105 µM
IC50 (pAkt in Ramos B cells): 0.057 µM
IC50 (PI3K δ [2]): 0.015 µM
IC50 (PAK3): > 10 µM
IC50 ([4]; average, read-out: average IC50 for pAkt): 0.035 µM
IC50 ([4]; representative experiment of Figure 5A, read-out: IC50 pAkt): 0.059 µM
IC50 (PI3K γ): > 20 µM
Predicted human half-life / dosing frequency [5]: predicted to require twice daily dosing
IC50 (pAkt): 0.047 µM
uPPB % [6]: 100%
IC50 ([7]; read-out: IC50 IL-6): 0.023 µM
IC50 ([7]; read-out: IC50 IL-10): 0.018 µM
IC50 ([7]; read-out: IC50 IL-17): 0.016 µM
IC50 ([7]; read-out: IC50 TNF-α): 0.057 µM
CL/F ([8]; C57BL/6N, plasma, po): 418 mL/min/kg
half-life ([8]; C57BL/6N, plasma, po): 36 min
Ka [8]: 1.6 h⁻¹
V/F [8]: 5.8 L/kg
uPPB % [10]: 65%
Inhibition of kinases in the panel [11]: impaired Hck and PAK3 activity
SMILES: O=C(c1nn([C@@H]2CCCN(CCN3CCOCC3)C2)c2c1CS(=O)(=O)c1cc(F)ccc1-2)N1CCOCC1 [MSC2364588, (R)-7-fluoro-3-(morpholin-4-ylcarbonyl)-1-[1-(2-morpholin-4-ylethyl)piperidin-3-yl]-1,4-dihydrothiochro-meno[4,3-c]pyrazole 5,5-dioxide]
Suppression of IFNα production by pDCs (CD123+/CD303+ pDC cells; CpG oligodeoxynucleotide-induced, TLR9-mediated): suppressed
B cell proliferation and IgG secretion, IL-17A, IL-2 and TNFα release (B cell/PBMC co-culture): significantly and dose-dependently inhibited
IL-6 levels (B cell/PBMC co-culture): no effect
Potency relative to MSC2360844 (PI3K δ [1]; all assays, cell types and in vitro enzymatic activity): 5–10 times
Potency relative to MSC2360844 (PI3K δ [1]; enzymatic and cellular contexts): 10 fold
IC50 ([3]; another donor (Figure 4C, right)): 0.012 µM
IC50 ([3]; one donor (Figure 4C, left)): 0.009 µM
Potency relative to MSC2360844 ([4]; mouse whole blood in vitro assay): approximately 10 folds
Potency relative to MSC2360844 (CD19+ B cells; B cell function): 10 times
IC50 (CD19+ B cells; Homo sapiens, B-cell, 96 h): 0.007 µM
IC50 (CD19+ B cells): 0.006 µM
Potency relative to MSC2360844 ([7]; T-cell cytokines): 10 times
IC50 [9]: 0.032 µM

— paper PMC4033217, “Characterization of Novel PI3Kδ Inhibitors as Potential Therapeutics for SLE and Lupus Nephritis in Pre-Clinical Studies” (Frontiers in Immunology, 2014)
